Test results from paper PMC12643230, “Retention order prediction of peptides containing non-proteinogenic amino acids” (Bioinformatics Advances, 2025).
Like-named read-outs stand apart in the source and are kept apart here.

Assay: LC/MS retention time of standard compounds and sponge extract (in-house platform)
Format: physicochemical
Parameters: RT (retention time): unit not given here
Procedure: Total 22 compounds and 9 PNPA standards covering a long time-range were purchased as reference standards (Table 1). Each standard compound was experimentally measured with our in-house LC/MS platform with conditions in Supporting Table 1, available as supplementary data at Bioinformatics Advances online.
The resulting extract was dissolved in methanol and subjected to LC/MS analysis with conditions in Supporting Table 1, available as supplementary data at Bioinformatics Advances online, for metabolite profiling.

[1] = purchased PNPA standard, in-house LC/MS platform, conditions in Supporting Table 1 (not shown), retention time related to hydrophobic/hydrophilic substructures, unit not given

| Compound | RT (retention time) [1] | further results |
| --- | --- | --- |
| [Arg8]-Vasopressin | 3.11 |  |
| C=CC/C(=N/OS(=O)(=O)O)S[C@@H]1O[C@H](CO)[C@@H](O)[C@H](O)[C@H]1O [2-Propenyl glucosinolate] |  | RT (retention time of the reference compound) (LC/MS, in-house platform, reference compound used for retention order comparison, sheet COCONUT): 1.74 min |
| C/C(=C\c1csc(C)n1)[C@@H]1C[C@@H]2O[C@]2(C)CCC[C@H](C)[C@H](O)[C@@H](C)C(=O)C(C)(C)[C@@H](O)CC(=O)O1 [Epothilone B] | 7.67 |  |
| Gramicidin A | 9.19 |  |
| Jaspamide [Measured compound] |  | Retention order of the measured compound against reference compound 2-Propenyl glucosinolate (binary 1/0) (column 'Measured compound', reference RT 1.74, observed order, no key for 1/0 printed, sheet COCONUT): 1; RT (retention time) of measured compound (compound detected in methanol extract of marine sponge Jaspis splendens, same in-house LC/MS conditions (Supporting Table 1), annotated as Jaspamide via retention order and MS/MS, unit not given): 8.45 |
| Bacitracin |  | RT (retention time): 4.67 |
| α-Amanitin | 3.41 |  |
